Key:
[1] = test system: H1975 cells (L858R/T790M); experiment: MTT antiproliferative activity assay; type: cell-based, human
Method: (§1) Cells were dosed with inhibitors to a final DMSO 0.5% in triplicate for 37 °C for 72 h. Cellular inhibition of growth was assessed by MTT viability assay according to the manufactures protocol (OZ Biosciences). […] Ba/F3 cells were all cultured in RPMI1640 media with 10% fetal bovine serum and 1% penicillin and streptomycin. The Ba/F3 cell lines were tested negative for Mycoplasma using Mycoplasma Plus PCR Primer Set (Agilent) and were passaged and/or used for no longer than 4 weeks for all experiments. Assay reagents were purchased from MilliporeSigma (Cat# R7017-5G). Ba/F3 cells were plated and treated with increasing concentrations of inhibitors in triplicate for 72 h. Compounds were dispensed using the Tecan D300e Digital Dispenser. […] All experiments were repeated at least 3 times and values were reported as an average with standard deviation.

[2] = test system: HCC827 cells (exon 19 del); experiment: MTT antiproliferative activity assay; type: cell-based, human
Method: as §1

[3] = biological target: T1, ABL1(T315I)-nonphosphorylated (Homo sapiens, UniProt P00519, T315I); experiment: KINOMEscan; type: binding; conditions: 1 μM
T1 construct: purchased Eurofins DiscoverX Corporation

[4] = biological target: T2, ACVR1 (Homo sapiens, UniProt Q04771); experiment: KINOMEscan; type: binding; conditions: 1 μM
T2 construct: purchased Eurofins DiscoverX Corporation
T2 sequence (Q04771 21-509): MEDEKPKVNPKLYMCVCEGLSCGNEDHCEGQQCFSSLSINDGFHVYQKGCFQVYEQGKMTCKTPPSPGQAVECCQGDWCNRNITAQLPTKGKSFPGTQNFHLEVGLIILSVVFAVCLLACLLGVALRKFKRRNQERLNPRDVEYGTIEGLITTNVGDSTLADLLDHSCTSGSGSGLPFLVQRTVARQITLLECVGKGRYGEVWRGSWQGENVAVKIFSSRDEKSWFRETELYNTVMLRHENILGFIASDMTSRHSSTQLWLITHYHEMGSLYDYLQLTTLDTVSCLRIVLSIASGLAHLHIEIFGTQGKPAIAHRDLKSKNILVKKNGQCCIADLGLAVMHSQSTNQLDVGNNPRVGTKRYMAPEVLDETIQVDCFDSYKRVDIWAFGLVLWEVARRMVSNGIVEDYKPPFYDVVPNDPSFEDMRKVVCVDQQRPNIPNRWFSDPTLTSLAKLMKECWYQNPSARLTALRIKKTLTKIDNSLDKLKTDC

[5] = biological target: ALK(L1196M) (Homo sapiens, UniProt Q9UM73, L1196M); experiment: KINOMEscan; type: binding; conditions: 1 μM
[6] = biological target: ARK5 (Homo sapiens, UniProt O60285); experiment: KINOMEscan; type: binding; conditions: 1 μM
Chain of ARK5 (O60285 whole entry): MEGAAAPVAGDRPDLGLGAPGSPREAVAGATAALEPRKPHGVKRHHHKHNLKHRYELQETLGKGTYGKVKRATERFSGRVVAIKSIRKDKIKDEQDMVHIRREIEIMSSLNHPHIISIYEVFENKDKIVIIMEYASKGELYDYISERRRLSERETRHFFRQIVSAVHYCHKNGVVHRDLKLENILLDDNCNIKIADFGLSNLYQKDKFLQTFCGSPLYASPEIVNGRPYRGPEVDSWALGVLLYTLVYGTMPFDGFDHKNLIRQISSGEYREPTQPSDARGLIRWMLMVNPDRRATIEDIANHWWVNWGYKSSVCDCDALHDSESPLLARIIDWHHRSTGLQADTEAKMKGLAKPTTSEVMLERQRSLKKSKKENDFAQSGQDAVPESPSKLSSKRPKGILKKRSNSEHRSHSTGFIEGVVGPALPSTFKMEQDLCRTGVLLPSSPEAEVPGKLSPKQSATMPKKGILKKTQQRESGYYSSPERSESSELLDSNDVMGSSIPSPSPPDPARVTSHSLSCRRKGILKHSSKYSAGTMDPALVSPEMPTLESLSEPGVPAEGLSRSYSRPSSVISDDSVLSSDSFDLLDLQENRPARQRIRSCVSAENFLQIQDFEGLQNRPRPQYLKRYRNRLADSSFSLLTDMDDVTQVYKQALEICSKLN

[7] = biological target: T3, CAMK2A (Homo sapiens, UniProt Q9UQM7); experiment: KINOMEscan; type: binding; conditions: 1 μM
T3 construct: purchased Eurofins DiscoverX Corporation (KINOMEscan)

[8] = biological target: T4, CAMK2G (Homo sapiens, UniProt Q13555); experiment: KINOMEscan; type: binding; conditions: 1 μM
T4 construct: purchased Eurofins DiscoverX Corporation (KINOMEscan)

[9] = biological target: T5, CAMK4 (Homo sapiens, UniProt Q16566); experiment: KINOMEscan; type: binding; conditions: 1 μM
T5 construct: purchased Eurofins DiscoverX Corporation (KINOMEscan)

[10] = biological target: CLK4 (Homo sapiens, UniProt Q9HAZ1); experiment: KINOMEscan; type: binding; conditions: 1 μM
[11] = biological target: CSF1R-autoinhibited (Homo sapiens, UniProt P07333); experiment: KINOMEscan; type: binding; conditions: 1 μM
[12] = biological target: T6, CTK (Homo sapiens, UniProt P42679); experiment: KINOMEscan; type: binding; conditions: 1 μM
T6 construct: purchased Eurofins DiscoverX Corporation

[13] = biological target: T7, DAPK3 (Homo sapiens, UniProt O43293); experiment: KINOMEscan; type: binding; conditions: 1 μM
T7 construct: purchased Eurofins DiscoverX Corporation
T7 sequence (O43293 whole entry): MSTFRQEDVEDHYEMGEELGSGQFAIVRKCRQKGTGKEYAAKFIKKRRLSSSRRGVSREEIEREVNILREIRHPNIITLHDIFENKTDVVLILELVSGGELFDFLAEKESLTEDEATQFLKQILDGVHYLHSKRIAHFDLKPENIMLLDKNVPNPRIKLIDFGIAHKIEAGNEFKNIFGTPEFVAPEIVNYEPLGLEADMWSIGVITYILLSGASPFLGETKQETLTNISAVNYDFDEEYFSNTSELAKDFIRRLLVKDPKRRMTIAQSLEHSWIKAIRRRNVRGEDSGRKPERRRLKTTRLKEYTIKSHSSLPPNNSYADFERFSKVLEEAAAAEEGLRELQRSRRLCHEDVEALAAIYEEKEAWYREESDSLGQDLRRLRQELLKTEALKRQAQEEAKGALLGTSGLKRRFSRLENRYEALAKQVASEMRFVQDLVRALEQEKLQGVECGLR

[14] = biological target: T8, DLK (Homo sapiens, UniProt Q12852); experiment: KINOMEscan; type: binding; conditions: 1 μM
T8 construct: purchased Eurofins DiscoverX Corporation
T8 sequence (Q12852 whole entry): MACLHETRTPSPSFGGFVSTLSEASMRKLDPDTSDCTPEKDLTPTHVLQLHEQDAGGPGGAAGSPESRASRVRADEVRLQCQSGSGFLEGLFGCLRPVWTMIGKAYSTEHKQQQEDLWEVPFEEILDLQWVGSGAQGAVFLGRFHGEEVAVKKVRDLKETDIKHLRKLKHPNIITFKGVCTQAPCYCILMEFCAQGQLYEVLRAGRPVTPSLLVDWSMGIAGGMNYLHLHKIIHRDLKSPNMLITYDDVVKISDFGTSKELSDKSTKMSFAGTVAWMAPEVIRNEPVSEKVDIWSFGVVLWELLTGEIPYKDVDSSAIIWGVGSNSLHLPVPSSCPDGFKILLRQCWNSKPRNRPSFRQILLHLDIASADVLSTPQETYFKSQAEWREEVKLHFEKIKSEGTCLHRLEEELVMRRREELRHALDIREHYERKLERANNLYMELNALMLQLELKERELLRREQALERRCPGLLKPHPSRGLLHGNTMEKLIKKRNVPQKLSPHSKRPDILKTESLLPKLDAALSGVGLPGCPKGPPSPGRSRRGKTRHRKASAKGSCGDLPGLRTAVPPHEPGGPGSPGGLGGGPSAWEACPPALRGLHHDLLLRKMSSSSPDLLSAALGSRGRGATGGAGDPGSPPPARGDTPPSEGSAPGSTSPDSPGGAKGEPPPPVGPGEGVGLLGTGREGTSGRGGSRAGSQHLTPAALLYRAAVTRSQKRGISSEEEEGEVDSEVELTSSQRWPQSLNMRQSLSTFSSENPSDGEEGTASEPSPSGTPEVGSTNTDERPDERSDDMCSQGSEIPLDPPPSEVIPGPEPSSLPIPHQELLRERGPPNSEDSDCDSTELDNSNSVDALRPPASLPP

[15] = biological target: EGFR(L861Q) (Homo sapiens, UniProt P00533, L861Q); experiment: KINOMEscan; type: binding; conditions: 1 μM
[16] = biological target: EPHA8 (Homo sapiens, UniProt P29322); experiment: KINOMEscan; type: binding; conditions: 1 μM
[17] = biological target: FGFR3(G697C) (Homo sapiens, UniProt P22607, G697C); experiment: KINOMEscan; type: binding; conditions: 1 μM
[18] = biological target: T9, KIT(D816H) (Homo sapiens, UniProt P10721, D816H); experiment: KINOMEscan; type: binding; conditions: 1 μM
T9 construct: purchased Eurofins DiscoverX (KINOMEscan)

[19] = biological target: T10, LATS2 (Homo sapiens, UniProt Q9NRM7); experiment: KINOMEscan; type: binding; conditions: 1 μM
T10 construct: purchased Eurofins DiscoverX Corporation

[20] = biological target: T11, LRRK2(G2019S) (Homo sapiens, UniProt Q5S007, G2019S); experiment: KINOMEscan; type: binding; conditions: 1 μM
T11 construct: purchased Eurofins DiscoverX Corporation

[21] = biological target: T12, MAP3K1 (Homo sapiens, UniProt Q13233); experiment: KINOMEscan; type: binding; conditions: 1 μM
T12 construct: purchased Eurofins DiscoverX Corporation

[22] = biological target: T13, MET (Homo sapiens, UniProt P08581); experiment: KINOMEscan; type: binding; conditions: 1 μM
T13 construct: purchased Eurofins DiscoverX Corporation

[23] = biological target: T14, MKNK1 (Homo sapiens, UniProt Q9BUB5); experiment: KINOMEscan; type: binding; conditions: 1 μM
T14 construct: purchased Eurofins DiscoverX Corporation
T14 sequence (Q9BUB5 whole entry): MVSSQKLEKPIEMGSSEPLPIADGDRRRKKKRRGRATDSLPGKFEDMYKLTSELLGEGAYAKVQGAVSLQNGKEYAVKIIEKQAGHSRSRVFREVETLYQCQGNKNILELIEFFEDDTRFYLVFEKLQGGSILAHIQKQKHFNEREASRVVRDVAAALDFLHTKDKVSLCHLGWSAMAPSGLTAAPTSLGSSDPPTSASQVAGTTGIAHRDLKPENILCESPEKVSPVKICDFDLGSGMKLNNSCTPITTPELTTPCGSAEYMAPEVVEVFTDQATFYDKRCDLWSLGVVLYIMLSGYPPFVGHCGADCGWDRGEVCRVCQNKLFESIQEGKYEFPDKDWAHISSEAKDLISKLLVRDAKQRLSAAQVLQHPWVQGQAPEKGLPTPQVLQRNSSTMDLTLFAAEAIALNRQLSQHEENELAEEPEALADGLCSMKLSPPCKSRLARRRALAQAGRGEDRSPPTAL

[24] = biological target: NIM1 (Homo sapiens, UniProt Q8IY84); experiment: KINOMEscan; type: binding; conditions: 1 μM
[25] = biological target: NLK (Homo sapiens, UniProt Q9UBE8); experiment: KINOMEscan; type: binding; conditions: 1 μM
[26] = biological target: PAK1 (Homo sapiens, UniProt Q13153); experiment: KINOMEscan; type: binding; conditions: 1 μM
Chain of PAK1 (Q13153 whole entry): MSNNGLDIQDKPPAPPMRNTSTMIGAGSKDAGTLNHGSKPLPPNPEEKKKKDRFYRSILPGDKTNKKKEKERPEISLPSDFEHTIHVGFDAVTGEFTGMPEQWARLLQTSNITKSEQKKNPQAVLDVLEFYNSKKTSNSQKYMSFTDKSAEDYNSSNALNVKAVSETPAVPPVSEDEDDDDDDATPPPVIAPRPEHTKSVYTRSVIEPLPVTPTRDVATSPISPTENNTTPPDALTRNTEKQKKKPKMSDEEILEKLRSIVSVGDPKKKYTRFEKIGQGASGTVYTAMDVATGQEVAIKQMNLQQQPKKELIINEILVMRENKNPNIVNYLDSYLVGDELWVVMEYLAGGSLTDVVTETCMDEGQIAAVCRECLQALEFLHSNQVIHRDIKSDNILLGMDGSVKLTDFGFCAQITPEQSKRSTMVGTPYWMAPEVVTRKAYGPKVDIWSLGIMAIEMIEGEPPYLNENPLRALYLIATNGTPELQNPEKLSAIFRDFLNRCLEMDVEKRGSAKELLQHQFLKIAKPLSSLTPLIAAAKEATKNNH

[27] = biological target: PIP5K2C (Homo sapiens, UniProt Q8TBX8); experiment: KINOMEscan; type: binding; conditions: 1 μM
[28] = biological target: PKN1 (Homo sapiens, UniProt Q16512); experiment: KINOMEscan; type: binding; conditions: 1 μM
[29] = biological target: PRKG2 (Homo sapiens, UniProt Q13237); experiment: KINOMEscan; type: binding; conditions: 1 μM
[30] = biological target: RET(M918T) (Homo sapiens, UniProt P07949, M918T); experiment: KINOMEscan; type: binding; conditions: 1 μM
[31] = biological target: ROCK1 (Homo sapiens, UniProt Q13464); experiment: KINOMEscan; type: binding; conditions: 1 μM
Chain of ROCK1 (Q13464 whole entry): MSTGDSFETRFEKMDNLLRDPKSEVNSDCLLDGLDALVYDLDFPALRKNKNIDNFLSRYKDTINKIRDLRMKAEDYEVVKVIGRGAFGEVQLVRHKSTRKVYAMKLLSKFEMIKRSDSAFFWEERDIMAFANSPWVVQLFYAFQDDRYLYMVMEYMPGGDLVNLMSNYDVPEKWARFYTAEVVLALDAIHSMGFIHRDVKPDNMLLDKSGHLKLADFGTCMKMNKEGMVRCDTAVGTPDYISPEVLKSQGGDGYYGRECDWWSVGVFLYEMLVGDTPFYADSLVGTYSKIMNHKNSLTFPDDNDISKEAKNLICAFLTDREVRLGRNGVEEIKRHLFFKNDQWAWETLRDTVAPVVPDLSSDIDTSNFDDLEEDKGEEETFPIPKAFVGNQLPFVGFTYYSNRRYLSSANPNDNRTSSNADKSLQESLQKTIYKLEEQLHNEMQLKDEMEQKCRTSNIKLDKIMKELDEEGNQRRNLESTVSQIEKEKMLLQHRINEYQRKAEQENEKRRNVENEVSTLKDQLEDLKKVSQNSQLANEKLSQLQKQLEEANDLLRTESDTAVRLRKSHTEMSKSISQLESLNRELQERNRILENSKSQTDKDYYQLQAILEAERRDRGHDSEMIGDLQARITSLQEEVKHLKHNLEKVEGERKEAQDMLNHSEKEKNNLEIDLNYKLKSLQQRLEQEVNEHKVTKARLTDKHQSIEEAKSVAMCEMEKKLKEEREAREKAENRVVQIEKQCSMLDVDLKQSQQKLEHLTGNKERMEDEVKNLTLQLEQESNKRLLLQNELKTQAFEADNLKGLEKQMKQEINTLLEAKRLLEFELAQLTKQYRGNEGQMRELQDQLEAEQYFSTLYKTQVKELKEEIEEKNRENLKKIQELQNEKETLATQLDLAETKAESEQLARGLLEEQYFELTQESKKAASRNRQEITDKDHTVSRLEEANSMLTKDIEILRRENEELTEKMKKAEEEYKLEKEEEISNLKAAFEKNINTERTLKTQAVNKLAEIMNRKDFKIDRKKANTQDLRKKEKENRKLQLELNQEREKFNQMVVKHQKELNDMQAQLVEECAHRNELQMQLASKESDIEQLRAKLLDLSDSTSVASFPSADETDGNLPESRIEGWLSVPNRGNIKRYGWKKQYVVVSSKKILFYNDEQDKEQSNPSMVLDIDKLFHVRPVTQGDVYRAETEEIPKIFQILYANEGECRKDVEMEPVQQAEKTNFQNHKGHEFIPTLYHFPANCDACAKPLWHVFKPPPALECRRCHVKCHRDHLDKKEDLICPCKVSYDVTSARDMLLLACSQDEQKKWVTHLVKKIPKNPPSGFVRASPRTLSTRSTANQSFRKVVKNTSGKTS

[32] = biological target: RSK3(Kin.Dom.2-C-terminal) (Homo sapiens, UniProt Q15349); experiment: KINOMEscan; type: binding; conditions: 1 μM
[33] = biological target: SgK110 (Homo sapiens, UniProt P0C264); experiment: KINOMEscan; type: binding; conditions: 1 μM
[34] = biological target: SRMS (Homo sapiens, UniProt Q9H3Y6); experiment: KINOMEscan; type: binding; conditions: 1 μM
[35] = biological target: SRPK2 (Homo sapiens, UniProt P78362); experiment: KINOMEscan; type: binding; conditions: 1 μM
[36] = biological target: T15, TNK1 (Homo sapiens, UniProt Q13470); experiment: KINOMEscan; type: binding; conditions: 1 μM
T15 construct: purchased Eurofins DiscoverX Corporation

[37] = biological target: ULK3 (Homo sapiens, UniProt Q6PHR2); experiment: KINOMEscan; type: binding; conditions: 1 μM

**Q.** Which “less potent than AZD9291” value ([1]; H1975) does the source give for C=CC(=O)Nc1ccc(OC)c(Nc2cc(-c3[nH]c(CC)nc3-c3cccc(NC(=O)c4cccc5c4NC(=O)c4ccccc4N5)c3)ccn2)c1 [Compound 4] here?
**A.** ~ 60 fold

**Q.** And the antiproliferative active concentration ([1]; H1975, text)?
**A.** 100 to 500 nM

**Q.** What about the “less potent than AZD9291” value ([2]; HCC827) of the same compound?
**A.** ~ 60 fold

**Q.** And the antiproliferative active concentration ([2]; HCC827, text)?
**A.** 100 to 500 nM

**Q.** What about the POC [3] of the same compound?
**A.** 98% of control

**Q.** And the POC [4]?
**A.** 96% of control

**Q.** And the POC [5]?
**A.** 89% of control

**Q.** And the POC [6]?
**A.** 100% of control

**Q.** What about the POC [7] of the same compound?
**A.** 65% of control

**Q.** And the POC [8]?
**A.** 100% of control

**Q.** And the POC [9]?
**A.** 99% of control

**Q.** And the POC [10]?
**A.** 100% of control

**Q.** And the POC [11]?
**A.** 69% of control

**Q.** And the POC [12]?
**A.** 54% of control

**Q.** What about the POC [13] of the same compound?
**A.** 62% of control

**Q.** What about the POC [14] of the same compound?
**A.** 100% of control

**Q.** What about the POC [15] of the same compound?
**A.** 2.7% of control

**Q.** What about the POC [16] of the same compound?
**A.** 98% of control

**Q.** What about the POC [17] of the same compound?
**A.** 100% of control

**Q.** And the POC [18]?
**A.** 39% of control

**Q.** And the POC [19]?
**A.** 62% of control

**Q.** What about the POC [20] of the same compound?
**A.** 100% of control

**Q.** What about the POC [21] of the same compound?
**A.** 100% of control

**Q.** And the POC [22]?
**A.** 69% of control

**Q.** And the POC [23]?
**A.** 100% of control

**Q.** What about the POC [24] of the same compound?
**A.** 78% of control

**Q.** What about the POC [25] of the same compound?
**A.** 48% of control

**Q.** And the POC [26]?
**A.** 100% of control

**Q.** What about the POC [27] of the same compound?
**A.** 66% of control

**Q.** What about the POC [28] of the same compound?
**A.** 88% of control

**Q.** And the POC [29]?
**A.** 62% of control

**Q.** What about the POC [30] of the same compound?
**A.** 99% of control

**Q.** And the POC [31]?
**A.** 100% of control

**Q.** What about the POC [32] of the same compound?
**A.** 80% of control

**Q.** And the POC [33]?
**A.** 100% of control

**Q.** And the POC [34]?
**A.** 61% of control

**Q.** And the POC [35]?
**A.** 100% of control

**Q.** What about the POC [36] of the same compound?
**A.** 22% of control

**Q.** What about the POC [37] of the same compound?
**A.** 100% of control

From article PMC10879502, “Linking ATP and allosteric sites to achieve superadditive binding with bivalent EGFR kinase inhibitors” (Communications Chemistry, 2024)
